Source: ChEMBL document CHEMBL4339186, “Repurposing nitrocatechols: 5-Nitro-α-cyanocarboxamide derivatives of caffeic acid and caffeic acid phenethyl ester effectively inhibit aggregation of tau-derived hexapeptide AcPHF6” (Eur J Med Chem, 2019)
Calls of active or inactive are those of the source. The calls are words filed in the database; no cut-off is given here.

How the values were obtained:
[1] = Inhibition of synthetic AcPHF6 peptide aggregation in pH 7.4 phosphate buffer assessed as reduction in fluorescence intensity at 50 uM and measured every minute over 2 hrs with 5 secs shaking prior to each reading by ThT fluorescence assay
[2] = Metal chelating activity assessed as Fe2+-compound complex formation at 40 uM after 30 mins by UV-Visible spectrophotometric method
[3] = Metal chelating activity assessed as Cu2+-compound complex formation at 40 uM after 30 mins by UV-Visible spectrophotometric method
[4] = Metal chelating activity assessed as Cu2+-compound complex formation at 40 uM incubated with 0-100 uM copper(II) sulfate after 30 mins by UV-Visible spectrophotometric method

With `CCOC(=O)/C=C/c1cc(O)c(O)c([N+](=O)[O-])c1` the inhibition [1] was 44%.

With `O=C(O)/C=C/c1cc(O)c(O)c(Br)c1` the inhibition [1] was 18%.

In the case of `O=C(O)c1cc(O)c(O)c(O)c1`, the inhibition [1] is reported as “inactive”.

Compound `O=S(=O)(O)c1cc(S(=O)(=O)O)c2c(/N=N/c3ccccc3)c(O)ccc2c1` has an inhibition [1] of 54%.

With `CCOC(=O)/C=C/c1ccc(O)cc1` the inhibition [1] was “inactive”.

For `O=C(/C=C/c1cc(O)c(O)c([N+](=O)[O-])c1)OCCc1ccccc1`, the Activity [2] was “inactive”, the inhibition [1] was 55.2% and the Activity [3] was “Active”.

For `N#C/C(=C\c1cc(O)c(O)c([N+](=O)[O-])c1)C(=O)OCCc1ccccc1`, the Activity [2] was “inactive”, the inhibition [1] was 74.4% and the Activity [3] was “Active”.

For `CCN(CC)C(=O)/C(C#N)=C/c1cc(O)c(O)c([N+](=O)[O-])c1`, the inhibition [1] was 60.3%.

With `CCOC(=O)/C=C/c1ccc(O)c(O)c1` the inhibition [1] was “inactive”.

In the case of `O=C(/C=C/c1ccc(O)c(O)c1)OCCc1ccccc1`, the inhibition [1] is reported as 17%.

For `O=C(O)/C=C/c1cc(O)c(O)c(O)c1`, the inhibition [1] was “inactive”.

For `CCOC(=O)C(=Cc1ccc(O)cc1)C(=O)OCC`, the inhibition [1] was “inactive”.

For `CCOC(=O)C(=Cc1cc(O)c(O)c(O)c1)C(=O)OCC`, the inhibition [1] was “inactive”.

In the case of `O=C(O)C(=Cc1cc(O)c(O)c([N+](=O)[O-])c1)C(=O)O`, the inhibition [1] is reported as “inactive”.

In the case of `O=C(/C=C/c1ccc(O)c(O)c1)OCc1ccccc1`, the inhibition [1] is reported as 13%.

For `O=C(O)c1ccc(O)c(O)c1`, the inhibition [1] was “inactive”.

In the case of `O=C(/C=C/c1cc(O)c(O)c([N+](=O)[O-])c1)OCc1ccccc1`, the Activity [2] is reported as “inactive”, the inhibition [1] is reported as 44.5% and the Activity [3] is reported as “Active”.

`O=C(O)/C=C/c1cc(O)c(O)c([N+](=O)[O-])c1` showed an inhibition [1] of 45%.

For `O=C(O)/C=C/c1ccc(O)c(O)c1`, the inhibition [1] was “inactive”.

`CCOC(=O)C(=Cc1cc(O)c(O)c([N+](=O)[O-])c1)C(=O)OCC` showed an inhibition [1] of 41%.

In the case of `N#C/C(=C\c1cc(O)c(O)c([N+](=O)[O-])c1)C(=O)NCc1ccccc1`, the Activity [2] is reported as “inactive”, the inhibition [1] is reported as 90.5% and the Activity [3] is reported as “Active”.

Compound `Cc1ccc(C(=O)c2cc(O)c(O)c([N+](=O)[O-])c2)cc1` has an inhibition [1] of 64.6%.

Work on `CCOC(=O)/C=C/c1cc(O)c(O)c(O)c1` yielded an inhibition [1] of 21%.

For `N#C/C(=C\c1cc(O)c(O)c([N+](=O)[O-])c1)C(=O)OCc1ccccc1`, the Activity [2] was “inactive”, the inhibition [1] was 71.2% and the Activity [3] was “Active”.

With `O=C(O)/C=C/c1ccc(O)cc1` the inhibition [1] was “inactive”.

In the case of `N#C/C(=C\c1cc(O)c(O)c([N+](=O)[O-])c1)C(=O)NCCc1ccccc1`, the Activity [2] is reported as “inactive”, the inhibition [1] is reported as 89.2% and the Activity [3] is reported as “Active”. For the same compound, the Activity [4] was “Active”.

In the case of `CCOC(=O)C(=Cc1ccc(O)c(O)c1)C(=O)OCC`, the inhibition [1] is reported as “inactive”.

For `O=C(/C=C/c1ccc(O)c(O)c1)NCCc1ccccc1`, the inhibition [1] was “inactive”.
